Source: patent publication US11253525B2, “Inhibitors of indoleamine 2,3-dioxygenase and methods of their use” (BRISTOL-MYERS SQUIBB COMPANY, priority 2018, dated 2022)

These compounds were tested against T1, human IDO1 (Homo sapiens, UniProt P14902) (assay: HEK293 cell-based indoleamine 2,3-dioxygenase (IDO) assay). Conditions: human IDO1/HEK293 cells, 20 hours; read-out: IDO1 HEK Human IC50.
T1 construct: expressed in transfected cells
Method: Assessment of Inhibitor Activity in HEK293 Cell-Based Indoleamine 2,3-Dioxygenase (IDO) Assay
HEK293 cells were transfected with a pCDNA-based mammalian expression vector harboring human IDO1 cDNA (NM 002164.2) by electroporation. They were cultured in medium (DMEM with 10% FBS) containing 1 mg/ml G418 for two weeks. Clones of HEK293 cells that stably expressed human IDO1 protein were selected and expanded for IDO inhibition assay.
The human IDO1/HEK293 cells were seeded at 10,000 cells per 50 μL per well with RPMI/phenol red free media contains 10% FBS in a 384-well black wall clear bottom tissue culture plate (Matrix Technologies LLC) 100 nL of certain concentration of compound was then added to each well using ECHO liquid handling systems. The cells were incubated for 20 hours in 37° C. incubator with 5% CO2.
The compound treatments were stopped by adding trichloroacetic acid (Sigma-Aldrich) to a final concentration at 0.2%. The cell plate was further incubated at 50° C. for 30 minute. The equal volume supernatant (20 μL) and 0.2% (w/v) Ehrlich reagent (4-dimethylaminobenzaldehyde, Sigma-Aldrich) in glacial acetic acid were mixed in a new clear bottom 384-well plate. This plate was then incubated at room temperature for 30 minute. The absorbance at 490 nm was measured on Envision plate reader.
Compound IC50 values were calculated using the counts of 500 nM of a reference standard treatment as one hundred percent inhibition, and counts of no compound but DMSO treatment as zero percent inhibition.

T1 sequence (P14902 whole entry): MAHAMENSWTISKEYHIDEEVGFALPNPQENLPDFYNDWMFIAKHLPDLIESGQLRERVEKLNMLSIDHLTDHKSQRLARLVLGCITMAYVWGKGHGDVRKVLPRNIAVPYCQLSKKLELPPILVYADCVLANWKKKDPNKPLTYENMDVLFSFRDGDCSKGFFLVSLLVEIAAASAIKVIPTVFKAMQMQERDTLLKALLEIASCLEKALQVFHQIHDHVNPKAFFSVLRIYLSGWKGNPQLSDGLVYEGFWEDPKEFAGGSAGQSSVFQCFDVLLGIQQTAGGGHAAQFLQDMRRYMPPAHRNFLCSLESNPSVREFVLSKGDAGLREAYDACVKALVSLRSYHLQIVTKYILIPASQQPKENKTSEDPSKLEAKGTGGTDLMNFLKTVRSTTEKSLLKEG

SMILES | IC50 [nM]
CCOC(C)(C)c1ccc([C@@H](CC)CC(=O)O)cc1Nc1ccc(Cl)cc1 (single isomer, unassigned) [Example 5] | 95
CCO[C@H](c1ccc(F)cc1)c1cc(Nc2ccc(Cl)cc2)cc([C@@H](CC)CC(=O)O)c1 (single isomer, unassigned) [Example 113-2] | 131
Cc1cc(NC(=O)Nc2cc(-c3ccccc3-c3nn[nH]n3)ccc2C(CC(C)C)CC(C)C)no1 [Example 136, 1-(4-(2,6-Dimethylheptan-4-yl)-2′-(2H-tetrazol-5-yl)-[1,1′-biphenyl]-3-yl)-3-(5-methylisoxazol-3-yl)urea] | 19
CCO[C@@H](c1ccc(F)cc1)c1cc(Nc2ccc3nc(C)sc3c2)cc([C@@H](CC)CC(=O)O)c1 (single isomer, unassigned) [Example 115] | 1200
CCO[C@H](c1ccc(F)cc1)c1cc(Nc2ccc3nc(C)sc3c2)cc([C@H](CC)CC(=O)O)c1 (single isomer, unassigned) [Example 116] | 108
Cc1ccc(NC(=O)Nc2cc(-c3ccccc3-c3nn[nH]n3)ccc2C(CC(C)C)CC(C)C)cc1 [Example 134, 1-(4-(2,6-dimethylheptan-4-yl)-2′-(2H-tetrazol-5-yl)-[1,1′-biphenyl]-3-yl)-3-(p-tolyl)urea] | 20
Cc1ccc(NC(=O)Nc2cc(OCC(=O)O)ccc2C(CC(C)C)CC(C)C)cc1 [Example 138, 2-(4-(2,6-Dimethylheptan-4-yl)-3-(3-(p-tolyl)ureido)phenoxy)acetic acid] | 464

Same assay, conditions: human IDO1/HEK293 cells, 20 hours; read-out: IDO1 HEK Human IC50 class (A < 50, B < 250, C < 2000)

SMILES | IC50 [nM]
CCOc1ncc(Nc2cc([C@@H](CC)CC(=O)O)ccc2C(C)(C)OCC)cn1 (single isomer, unassigned) [Example 6] | 250 to 2000
CCOC(C)(C)c1ccc([C@H](CC)CC(=O)O)cc1NC(=O)Nc1ccc(C)cc1 (single isomer, unassigned) [Example 1] | 250 to 2000

What follows are compounds tested against T2, indoleamine 2,3-dioxygenase (IDO) (Homo sapiens, UniProt P14902) (assay: HeLa cell-based indoleamine 2,3-dioxygenase (IDO) assay, kynurenine production). Conditions: HeLa cells, IFNγ 25 ng/mL, 48 hour incubation; read-out: IDO Hela IC50.
T2 construct: replaced with media containing IFNγ (#285-IF/CF, R&D Systems) at a final concentration of 25 ng/mL; endogenous in cells; host or cells: HeLa (ATCC CCL-2), IFN-gamma stimulated
Method: Assessment of Inhibitor Activity in HeLa Cell-Based Indoleamine 23-Dioxygenase (IDO) Assay
Cells were maintained in a humidified incubator at 37° C. in 5% CO2.
IDO activity was assessed as a function of kynurenine production as follows: HeLa cells were seeded in a 96-well culture plate at a density of 5,000 cells/well and allowed to equilibrate overnight. […] A serial dilution of each test compound was added to the cells in a total volume of 200 μL of culture medium. After a further 48 hour incubation, 170 μL of supernatant was transferred from each well to a fresh 96-well plate. 12.1 μL of 6.1N trichloroacetic acid (#T0699, Sigma-Aldrich) was added to each well and mixed, followed by incubation at 65° C. for 20 minutes to hydrolyze N-formylkynurenine, the product of indoleamine 2,3-dioxygenase, to kynurenine. The reaction mixture was then centrifuged for 10 mins at 500×g to sediment the precipitate. 100 μL of the supernatant was transferred from each well to a fresh 96-well plate. […] Kynurenine concentrations were determined by measuring absorbance at 480 nm and calibrating against an L-kynurenine (#K8625, Sigma-Aldrich) standard curve using a SPECTRAMAX® M2e microplate reader (Molecular Devices). The percentage activity at each inhibitor concentration was determined and IC50 values assessed using nonlinear regression.

T2 sequence (P14902 whole entry): as above

SMILES | IC50 [nM]
CCO[C@@H](c1ccc([C@@H](COC)CC(=O)O)cc1NC(=O)Nc1ccc(Cl)cc1F)C(F)(F)F (single isomer, unassigned) [Example 75] | 40
CCO[C@H](c1ccc([C@@H](CC)CC(=O)O)cc1Nc1cnc(OC)nc1)C(F)(F)F (single isomer, unassigned) [Example 22] | 10
CCO[C@@H](c1ccc([C@H](CC)CC(=O)O)cc1Nc1cnc(COC)nc1)C(F)(F)F (single isomer, unassigned) [Example 38] | 610
CC[C@@H](CC(=O)O)c1ccc([C@@H](OC)C(F)(F)F)c(Nc2cnc(C(F)(F)F)nc2)c1 (single isomer, unassigned) [Example 88] | 10
CCO[C@@H](c1ccc([C@H](CC)CC(=O)O)cc1Nc1cnc(C)nc1)C(F)(F)F (single isomer, unassigned) [Example 39] | 100
CCO[C@H](c1ccc([C@@H](COC)CC(=O)O)cc1NC(=O)Nc1ccc(C)cc1)C(F)(F)F (single isomer, unassigned) [Example 60] | 910
CCO[C@@H](c1ccc([C@@H](COC)CC(=O)O)cc1Nc1ccc(Cl)cc1)C(F)(F)F (single isomer, unassigned) [Example 79] | 10
CCOc1ncc(Nc2cc([C@@H](CC)CC(=O)O)ccc2[C@H](CC)N2CCOCC2)cn1 (single isomer, unassigned) [Example 118-4] | 10
CCO[C@H](c1ccc([C@H](CC)CC(=O)O)cc1Nc1cnc(OC)nc1)C(F)(F)F (single isomer, unassigned) [Example 10] | 20
CCO[C@H](c1ccc([C@H](CC)CC(=O)O)cc1NC(=O)Nc1ccc(C)cc1)C(F)(F)F (single isomer, unassigned) [Example 7] | 60
CC[C@H](CC(=O)O)c1ccc([C@H](OC)C(F)(F)F)c(Nc2cnc(C)nc2)c1 (single isomer, unassigned) [Example 94] | 70
CCO[C@H](c1ccc([C@H](COC)CC(=O)O)cc1Nc1ccc(Cl)cc1)C(F)(F)F (single isomer, unassigned) [Example 58] | 20
CCOc1ncc(Nc2cc([C@@H](CC)CC(=O)O)ccc2[C@@H](OC)C(F)(F)F)cn1 (single isomer, unassigned) [Example 87] | 130
CCO[C@@H](c1ccc([C@@H](CC)CC(=O)O)cc1NC(=O)Nc1ccc(C)cc1)C(F)(F)F (single isomer, unassigned) [Example 41] | 20
CCO[C@@H](c1ccc([C@H](COC)CC(=O)O)cc1Nc1ccc(C#N)cc1)C(F)(F)F (relative stereo) [Example 73, (R)-3-(3-((4-cyanophenyl)amino)-4-((S)-1-ethoxy-2,2,2-trifluoroethyl)phenyl)-4-methoxybutanoic acid] | 10
CC[C@@H](CC(=O)O)c1ccc([C@@H](CC)N2CCOCC2)c(Nc2cnc(C(F)(F)F)nc2)c1 (relative stereo) [Example 130, (S)-3-(4-((R)-1-morpholinopropyl)-3-((2-(trifluoromethyl)pyrimidin-5-yl)amino)phenyl)pentanoic acid] | 90
CC[C@H](CC(=O)O)c1ccc([C@@H](CC)N2CCOCC2)c(Nc2cnc(C)nc2)c1 (relative stereo) [Example 120, (R)-3-(3-((2-methylpyrimidin-5-yl)amino)-4-((R)-1-morpholinopropyl)phenyl)pentanoic acid] | 80

Same assay, conditions: HeLa cells, IFNγ 25 ng/mL, 48 hour incubation; read-out: IDO Hela IC50 class (A < 50, B < 250, C < 2000)

SMILES | IC50 [nM]
CCO[C@H](c1ccc([C@H](CC)CC(=O)O)cc1Nc1ccc(C#N)cc1)C(F)(F)F (single isomer, unassigned) [Example 15] | < 50
CC[C@@H](CC(=O)O)c1ccc([C@H](OC)C(F)(F)F)c(Nc2ccc(C#N)cc2)c1 (single isomer, unassigned) [Example 97] | < 50
CCO[C@@H](c1ccc([C@H](COC)CC(=O)O)cc1Nc1cnc(C)nc1)C(F)(F)F (single isomer, unassigned) [Example 74] | 250 to 2000
CCO[C@@H](c1ccc([C@@H](COC)CC(=O)O)cc1Nc1ccc(C#N)cc1)C(F)(F)F (single isomer, unassigned) [Example 80] | < 50
CC[C@H](CC(=O)O)c1ccc([C@H](OC)C(F)(F)F)c(Nc2ccc(Cl)cc2)c1 (single isomer, unassigned) [Example 84-1] | < 50
CC[C@H](CC(=O)O)c1ccc([C@@H](OC)C(F)(F)F)c(Nc2ccc(Cl)cc2)c1 (single isomer, unassigned) [Example 83-2] | < 50
CCO[C@H](c1ccc([C@@H](COC)CC(=O)O)cc1Nc1ncc(F)cn1)C(F)(F)F (relative stereo) [Example 64, (S)-3-(4-((R)-1-ethoxy-2,2,2-trifluoroethyl)-3-((5-fluoropyrimidin-2-yl)amino)phenyl)-4-methoxybutanoic acid] | 250 to 2000
CCO[C@@H](c1ccc([C@H](CC)CC(=O)O)cc1Nc1ccc(C#N)cc1)C(F)(F)F (single isomer, unassigned) [Example 37] | < 50
CCO[C@H](c1ccc([C@H](COC)CC(=O)O)cc1Nc1cnc(C)nc1)C(F)(F)F (single isomer, unassigned) [Example 59] | 250 to 2000
CC[C@H](c1ccc([C@@H](COC)CC(=O)O)cc1Nc1ccc(F)cc1)N1CCOCC1 (single isomer, unassigned) [Example 111] | 250 to 2000
CC[C@@H](CC(=O)O)c1ccc([C@@H](CC)N2CCOCC2)c(Nc2ccc(OC(F)F)cn2)c1 (relative stereo) [Example 133, (S)-3-(3-((5-(difluoromethoxy)pyridin-2-yl)amino)-4-((R)-1-morpholinopropyl)phenyl)pentanoic acid] | 250 to 2000
CCO[C@H](c1ccc([C@@H](CC)CC(=O)O)cc1Nc1cnc(C)nc1)C(F)(F)F (single isomer, unassigned) [Example 28] | < 50
